Like-named read-outs stand apart in the source and are kept apart here.

Data set [1] in a line: Prodrug stability in freshly withdrawn porcine intestinal fluid. Format: in vitro ADME. To be noted: for Prodrug remaining at 3 h: porcine intestinal fluid pH 6.8, 37° C., in % (unit assumed). An excerpt:
Many of the peptidases in the intestinal lumen may not be present in the USP simulated intestinal fluid preparations previously described. […] The prodrugs evaluated were selected on the basis of adequate pharmacokinetics (see Example 8).

The nature of data set [2]: Pharmacokinetics in rat hepatic portal and tail veins after oral administration. Format: in vivo. To be noted: for AUC / Cmax: po, 1 mg/kg; for comparative systemic exposure to guanfacine vs guanfacine at an equimolar dose (in words): oral. How it is done:
Rats were surgically prepared under isofluorane anaesthesia by attaching a silicon catheter to the portal vein then exteriorising it at the nape of the neck with a blood collection port attached.
At each sampling time serial point blood samples (approximately 0.2 mL) were taken simultaneously from the lateral tail vein cannula and the hepatic portal cannula. After collection of the final blood sample each animal was killed by cervical dislocation. Blood samples were collected at 15, 30 minutes and 1, 2, 4, 8 and 24 hours post dose.
Pharmacokinetic parameters in portal and systemic plasma were derived by non-compartmental analysis (linear/logarithmic trapezoidal) using WinNonlin (Version 4.1) software.

Another data set deals with T1, human α-2A adrenoceptor (Homo sapiens, UniProt P08913).
T1 construct: expressed in transfected cells; host or cells: CHO cells
T1 sequence (P08913 1-465): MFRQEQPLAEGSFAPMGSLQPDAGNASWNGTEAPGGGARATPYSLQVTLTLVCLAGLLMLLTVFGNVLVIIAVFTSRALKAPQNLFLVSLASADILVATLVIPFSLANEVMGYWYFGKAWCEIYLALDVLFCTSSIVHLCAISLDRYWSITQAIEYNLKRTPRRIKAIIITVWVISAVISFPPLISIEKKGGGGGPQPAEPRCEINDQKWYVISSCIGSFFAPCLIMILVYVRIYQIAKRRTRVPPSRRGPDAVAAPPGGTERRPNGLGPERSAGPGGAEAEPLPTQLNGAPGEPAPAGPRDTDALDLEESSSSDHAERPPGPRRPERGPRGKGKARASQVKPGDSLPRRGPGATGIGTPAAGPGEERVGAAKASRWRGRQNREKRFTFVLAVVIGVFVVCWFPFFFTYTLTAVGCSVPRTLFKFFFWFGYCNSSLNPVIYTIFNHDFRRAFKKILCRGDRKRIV
Kind of data set: α-2A adrenoceptor binding assay ([3H] RX821002 competition, recombinant CHO cells). The following applies: [3H] RX821002 (1 nM). How it is done: The activation of this receptor is responsible for its intended therapeutic effect.
The binding assay methodology employed in this study followed that described by Langin et al. (Eur. J. Pharmacol. 167:95-104, 1989) and used human recombinant CHO cells expressing α-2 adrenoceptors. The competitive binding ligand was [3H] RX821002 (1 nM) which has a high affinity for the alpha-2A subtype.

Data set [3] in a line: Comparative pharmacokinetic screening study in the monkey (relative Cmax of guanfacine). To be noted: oral gavage, monkey screening study.
Procedure: Blood samples were taken on 4 sampling occasions at various times up to 6 hours after administration and submitted to analysis for the parent drug and prodrug using a qualified LC-MS-MS assay.
Data set [4] in a line: Prodrug stability in simulated intestinal fluid. To be noted: 37° C., pH 6.8, HPLC.
Procedure: (§1) The remaining concentrations of the prodrugs were then assayed by H PLC.
Data set [5] in a line: Prodrug stability in simulated gastric fluid. To be noted: 37° C., pH 1.1, HPLC.
Procedure: as §1
The test system of data set [6] is gastrointestinal transit of a charcoal meal in the rat. Kind of data set: Charcoal propulsion test (gut motility) in rat. The format is in vivo. To be noted: oral. As for the experimental part: The effect of a drug on gut motility can be studied by means of the charcoal propulsion test.
The method used was based on that described by Takemori et al. (J. Pharmacol. Exp. Ther. 169:39, 1969). Test treatments were administered orally 60 minutes prior to an oral dose of a 10% suspension of charcoal in 2.5% gum Arabic (2 ml/kg). Twenty minutes after dosing with charcoal, the rats were sacrificed and the entire gastrointestinal tract was removed quickly and carefully. The distance that the charcoal meal had traveled toward the caecum was measured and expressed as a percentage of the total gut length.

The nature of data set [7]: Comparative bioavailability study in monkeys in the fasted or fed state. The format is in vivo, cynomolgus monkey. As for the experimental part:
Five male cynomolgus monkeys were used. Food was withdrawn from animals in fasted groups from the evening of the day prior to dosing until approximately 4 hours after dosing.
The formulations were prepared on the day of dosing and administered orally as soon as practicable up to a maximum of 2 hours after formulation.
Blood samples (0.5 mL) were collected from all animals pre-dose and at 0.5, 1, 2, 3, 4, 6, 8 10, 12, 16 and 24 hours after dosing.
Following processing, the resultant plasma was frozen and analysed by a qualified method. Pharmacokinetic evaluation was performed using a validated pharmacokinetic software package.

Setting [8] is: hepatic portal vein plasma, read-out: Hepatic portal vein Prodrug AUC.
The mark [9] stands for this setting: hepatic portal vein plasma, read-out: Hepatic portal vein Prodrug Cmax.
Where [10] appears, read: tail vein (systemic) plasma, read-out: Tail vein Prodrug AUC.
Setting [11] is: tail vein (systemic) plasma, read-out: Tail vein Prodrug Cmax.
Where [12] appears, read: Study 2, dose 0.1 mg/kg guanfacine free base equivalents.
The mark [13] stands for this setting: Study 2, dose 0.3 mg/kg guanfacine free base equivalents.
Setting [14] is: Study 2, dose 0.5 mg/kg guanfacine free base equivalents.

Turning to `CNCC(=O)N[C@@H](COC(=O)NC(=N)NC(=O)Cc1c(Cl)cccc1Cl)C(=O)O` [Compound 61, Guanfacine ((S)-Serine-Sarcosine) Carbamate], the “stability in porcine intestinal fluid (in words)” value (shortened to “stability”) in data set [1] is listed as “intermediate stability”. For the same compound, the “Prodrug remaining at 3 h” value in data set [1] is listed as 66.86 ± 2.10. Also, the values for the area under the curve (AUC) in data set [2] (setting [8]) and in data set [2] (setting [10]) were 51.8 ng·h/mL and 5.09 ng·h/mL, respectively. For the same compound, the Cmax in data set [2] (setting [9]) was found to be 43.4 ng/mL; in data set [2] (setting [11]), 7.07 ng/mL. For the same compound, in data set [2], the “comparative systemic exposure to guanfacine vs guanfacine at an equimolar dose (in words)” value is recorded as “similar”. At human α-2A adrenoceptor, the Ki is 10 µM. In addition, the “prodrug levels in plasma (in words)” value in data set [3] is given as “detectable prodrug levels in plasma”. In addition, the “% prodrug remaining following incubation for 2 h in simulated intestinal fluid pH 6.8” value in data set [4] is 96%. For the same compound, in data set [5], the “% prodrug remaining following incubation for 1 h in simulated gastric fluid pH 1.1” value was 92%. Besides, the figures for the “% change in GI transit vs vehicle” value in data set [6] (setting [12]), in data set [6] (setting [13]) and in data set [6] (setting [14]) were −8%, −25% and −31%, respectively.

Consider `CN(CC(=O)O)C(=O)NC(=N)NC(=O)Cc1c(Cl)cccc1Cl` [Compound 9, Guanfacine Sarcosine Urea], for which the “prodrug levels in plasma (in words)” value in data set [3] is given as “high prodrug levels”. For the same compound, the “% prodrug remaining following incubation for 2 h in simulated intestinal fluid pH 6.8” value in data set [4] is on record as 105%. Moreover, the “% prodrug remaining following incubation for 1 h in simulated gastric fluid pH 1.1” value in data set [5] is 101%.

Take `C[C@@H](N)C(=O)N[C@@H](CCC(=O)NC(=N)NC(=O)Cc1c(Cl)cccc1Cl)C(=O)O` [Compound 41, Guanfacine ((S)-γ-Glutamate-(R)-Alanine) Amide]: the “stability” value in data set [1] was “high stability”. The “Prodrug remaining at 3 h” value in data set [1] is listed as 89.70 ± 3.60. Besides, the figures for the AUC in data set [2] (setting [8]) and in data set [2] (setting [10]) were 43.5 ng·h/mL and 8 ng·h/mL, respectively. The values for the Cmax in data set [2] (setting [9]) and in data set [2] (setting [11]) were 31.9 ng/mL and 6.14 ng/mL, respectively. Also, the inhibition constant Ki on human α-2A adrenoceptor is 1.7 µM. In addition, the “prodrug levels in plasma (in words)” value in data set [3] was “detectable prodrug levels in plasma”. Moreover, the “% prodrug remaining following incubation for 2 h in simulated intestinal fluid pH 6.8” value in data set [4] is listed as 83%. For the same compound, the “% prodrug remaining following incubation for 1 h in simulated gastric fluid pH 1.1” value in data set [5] is 70%.

In the case of `O=C(O)CC[C@@H]1N=C(NC(=O)Cc2c(Cl)cccc2Cl)NC1=O` [Compound 37, Guanfacine-(S)-Glutamic Cyclic Adduct], in data set [3], the “prodrug levels in plasma (in words)” value is “high prodrug levels”. Further, in data set [4], the “% prodrug remaining following incubation for 2 h in simulated intestinal fluid pH 6.8” value was 110%. Further, the “% prodrug remaining following incubation for 1 h in simulated gastric fluid pH 1.1” value in data set [5] was 58%.

Regarding `CC(C)[C@H](N)C(=O)N[C@@H](COC(=O)NC(=N)NC(=O)Cc1c(Cl)cccc1Cl)C(=O)O` [Compound 17, Guanfacine ((S)-Serine-(S)-Valine) Carbamate], in data set [1], the “stability” value was “very unstable”. In addition, the “prodrug levels in plasma (in words)” value in data set [3] is “total absence of prodrug in the plasma”. Besides, the “% prodrug remaining following incubation for 2 h in simulated intestinal fluid pH 6.8” value in data set [4] is recorded as 78%. Moreover, the “% prodrug remaining following incubation for 1 h in simulated gastric fluid pH 1.1” value in data set [5] is 93%.

On to `CC(C)[C@@H](N)C(=O)NCCC(=O)NC(=N)NC(=O)Cc1c(Cl)cccc1Cl` [Compound 11, Guanfacine (β-Alanine-(R)-Valine) Amide], for which, in data set [1], the “stability” value was “high stability” and the “Prodrug remaining at 3 h” value is on record as 91.3 ± 2.6. Also, the “prodrug levels in plasma (in words)” value in data set [3] was “detectable prodrug levels in plasma”. Further, in data set [4], the “% prodrug remaining following incubation for 2 h in simulated intestinal fluid pH 6.8” value is listed as 104%. Moreover, the “% prodrug remaining following incubation for 1 h in simulated gastric fluid pH 1.1” value in data set [5] is listed as 79%.

As for `CC(C)[C@H](N)C(=O)NCCC(=O)NC(=N)NC(=O)Cc1c(Cl)cccc1Cl` [Compound 2, Guanfacine (β-Alanine-(S)-Valine) Amide], the “stability” value in data set [1] is “intermediate stability”. Moreover, the “Prodrug remaining at 3 h” value in data set [1] is 77.8. Besides, the AUC in data set [2] (setting [8]) worked out at 19.2 ng·h/mL; in data set [2] (setting [10]), 2.67 ng·h/mL. In addition, the maximum concentration (Cmax) came out at 46.4 ng/mL in data set [2] (setting [9]); 4.2 ng/mL in data set [2] (setting [11]); 2.15 ng/mL in data set [7] (male, cynomolgus monkey, plasma, po, 0.5 mg/kg, read-out: mean Cmax prodrug). Besides, the Ki on human α-2A adrenoceptor was 1.2 µM. In data set [3], the “prodrug levels in plasma (in words)” value was “detectable prodrug levels in plasma”. For the same compound, the “% prodrug remaining following incubation for 2 h in simulated intestinal fluid pH 6.8” value in data set [4] is given as 89%. In addition, the “% prodrug remaining following incubation for 1 h in simulated gastric fluid pH 1.1” value in data set [5] is listed as 75%. Moreover, the “% change in GI transit vs vehicle” value in data set [6] (Study 1, dose 0.1 mg/kg guanfacine free base equivalents) is listed as “+3%”; in data set [6] (Study 1, dose 0.3 mg/kg guanfacine free base equivalents) it was −30%; in data set [6] (Study 1, dose 1 mg/kg guanfacine free base equivalents), −42%; in data set [6] (Study 1, dose 3 mg/kg guanfacine free base equivalents), −42%; in data set [6] (Study 1, dose 5 mg/kg guanfacine free base equivalents), −42%. Moreover, in data set [7] (Fasted, 0.5 mg/kg guanfacine equivalent dose, oral), the “mean Cmax prodrug” value is listed as “BLQ”.

As to `CNCC(=O)N[C@H](C(=O)O)[C@@H](C)OC(=O)NC(=N)NC(=O)Cc1c(Cl)cccc1Cl` [Compound 63, Guanfacine ((R,S)-Threonine-Sarcosine) Carbamate], the “stability” value in data set [1] was “high stability”. Further, in data set [1], the “Prodrug remaining at 3 h” value is listed as 95.04 ± 9.25. For the same compound, the exposure (AUC) was determined as 66.5 ng·h/mL in data set [2] (setting [8]) and 20.2 ng·h/mL in data set [2] (setting [10]). Besides, the Cmax in data set [2] (setting [9]) is 23.7 ng/mL; in data set [2] (setting [11]), 9.37 ng/mL. For the same compound, the “comparative systemic exposure to guanfacine vs guanfacine at an equimolar dose (in words)” value in data set [2] is on record as “similar”. In addition, the “prodrug levels in plasma (in words)” value in data set [3] is on record as “detectable prodrug levels in plasma”. The “% prodrug remaining following incubation for 2 h in simulated intestinal fluid pH 6.8” value in data set [4] is recorded as 99%. In addition, in data set [5], the “% prodrug remaining following incubation for 1 h in simulated gastric fluid pH 1.1” value is 86%. The “% change in GI transit vs vehicle” value is on record as 0% in data set [6] (setting [12]), −13% in data set [6] (setting [13]) and −49% in data set [6] (setting [14]).

With `N=C(NC(=O)Cc1c(Cl)cccc1Cl)NC(=O)c1ccc(N)cc1` [Compound 52, Guanfacine PABA Amide], in data set [1], the “stability” value is listed as “high stability” and the “Prodrug remaining at 3 h” value is 87.77 ± 5.80. Besides, the “% prodrug remaining following incubation for 2 h in simulated intestinal fluid pH 6.8” value in data set [4] is 97%. Besides, the “% prodrug remaining following incubation for 1 h in simulated gastric fluid pH 1.1” value in data set [5] was 84%.

Regarding `CNCC(=O)N[C@@H](CCC(=O)NC(=N)NC(=O)Cc1c(Cl)cccc1Cl)C(=O)O` [Compound 7, Guanfacine ((S)-γ-Glutamate-Sarcocine) Amide], the “Prodrug remaining at 3 h” value in data set [1] amounted to 48.9 ± 0.8. For the same compound, the “% prodrug remaining following incubation for 2 h in simulated intestinal fluid pH 6.8” value in data set [4] is reported as 66%. Besides, the “% prodrug remaining following incubation for 1 h in simulated gastric fluid pH 1.1” value in data set [5] is 79%.

(Values after US20110065796A1 (SHIRE LLC, priority 2009, published 2011).)
